Data from article PMC11267568 (2024).

Experiments:
Assay in all cases: in-line probing
[1] = test system: r10-4 (RNA, aptamer) GGACCUCGAGGCUACCGCGGCUGGCUCUCGGACGACUAUGCCUCGCGUGGAUAUGGCACGCGUAGAAGGGCACCGUAAAUGCCCUACUUGCGGUAGUCAUCCCGAUGGA; conditions: 10 mM MgCl2, 50 mM KCl (1x of 2x buffer); 25 mM Tris-HCl pH 8.3 (1x), room temperature, ~48 h
[2] = test system: r10-1 (RNA, aptamer) GGACCUCGAGGCUACCGCGGCUGGCUCUCGGACGACUAUGCCUCGCGUGGAUAUGGCACGCGUAGAAGGGCACCGUAAAUGUCCUACUUGCGGUAGUCAUCCCGAUGGA; conditions: 10 mM MgCl2, 50 mM KCl (1x of 2x buffer); 25 mM Tris-HCl pH 8.3 (1x), room temperature, ~48 h
[3] = test system: r10-3 (RNA, aptamer) GGACCUCGAGGCUACCGCGGCUGGCUCUCGGACGACUGUGCCUCGCGUGGAUAUGGCACGCGUAGAAGGACACCGUAAAUGUCCUACUUGCGGUAGUCAUCCCGAUGGA; conditions: 10 mM MgCl2, 50 mM KCl (1x of 2x buffer); 25 mM Tris-HCl pH 8.3 (1x), room temperature, ~48 h
[4] = test system: r10-1N (RNA, aptamer) GGCCUCGCGUGGAUAUGGCACGCGUAGAAGGGCACCGUAAAUGUCCUA; conditions: 10 mM MgCl2, 50 mM KCl (1x of 2x buffer); 25 mM Tris-HCl pH 8.3 (1x), room temperature, ~48 h
[5] = test system: 11-19 (RNA, aptamer) GGCUACCGCCGCUGGGCUCUCGGGACGACACUGAGGGAACGCGUGGAUAUGGCACGCAACAGCGGGCACCGUAAAUGUCCUGGCGGUAGUCGACCCGAUGGACACUGUCGGCGUAG; conditions: 10 mM MgCl2, 50 mM KCl (1x of 2x buffer); 0.1 to 10 μM branaplam
[6] = test system: 11-1 (RNA, aptamer) GGCUACCGCCGCUGGCUCUCGGGCGACUGUGCCUCGCGUGGAUAUGGCACGCGUAGAAGGGCACCGUAAAUGUCCUACUUGCGGUAGUCAUCCCGAUGGACACUGUCGGCGUAG; conditions: 10 mM MgCl2, 50 mM KCl (1x of 2x buffer); 25 mM Tris-HCl pH 8.3 (1x), room temperature, ~48 h
[7] = test system: r10-2 (RNA, aptamer) GGACCUCGAGGCUACCGCAGCUGGCUCUCGGACGACUAUGCCUCGCGUGGAUAUGGCACGCGUAGAAGGGCACCGUAAAUGUCCUACUUGCGGUAGUCAUCCCGAUGGA; conditions: 10 mM MgCl2, 50 mM KCl (1x of 2x buffer); 25 mM Tris-HCl pH 8.3 (1x), room temperature, ~48 h
[8] = test system: r10-1H (RNA, aptamer) GGCCUCGCGUGGAUAUGGCACGCGUAGAAGGGCACCGUAAAUGUCCUACUU; conditions: 10 mM MgCl2, 50 mM KCl (1x of 2x buffer); 25 mM Tris-HCl pH 8.3 (1x), room temperature, ~48 h
[9] = test system: t14-4 (RNA, aptamer) GGCUGAUCUCCCAUCGGUAUGCCCUUCUGUGUGAAGGCGGUACUAAUGCCGGAGUGUAGAAACUGGAUAAUGCCAGUUAGUGGUAUGGAGAUACUACGACGCACGC; conditions: 10 mM MgCl2, 50 mM KCl (1x of 2x buffer); 25 mM Tris-HCl pH 8.3 (1x), room temperature, ~48 h
[10] = test system: r10-1C-M1 (RNA, aptamer) GGCUACCGCGGCUGGCUUCGGCCUCGCGUGGAUAUAACACGCGUAGAAGGGCACCGUAAAUGUCCUACUUGCGGUAGUC; conditions: 10 mM MgCl2, 50 mM KCl (1x of 2x buffer); up to 10 μM branaplam; 25 mM Tris-HCl pH 8.3, room temperature
[11] = test system: 11-1B (RNA, aptamer) GGCUACCGCCGCUGGCUCUCGGGCGACUGUGCCUCGCGUGGAUAUGGCACGCGUAGAAGGGCACCGUAAAUGUCCUACUUGCGGUAGUC; conditions: 10 mM MgCl2, 50 mM KCl (1x of 2x buffer); 25 mM Tris-HCl pH 8.3 (1x), room temperature, ~48 h
[12] = test system: 11-19A (RNA, aptamer) GGCUACCGCCGCUGGGCUCUCGGGACGACACUGAGGGAACGCGUGGAUAUGGCACGCAACAGCGGGCACCGUAAAUGUCCUGGCGGUAGUC; conditions: 10 mM MgCl2, 50 mM KCl (1x of 2x buffer); 25 mM Tris-HCl pH 8.3 (1x), room temperature, ~48 h
[13] = test system: r10-1G (RNA, aptamer) GGCUGGCUUCGGCCUCGCGUGGAUAUGGCACGCGUAGAAGGGCACCGUAAAUGUCCUACUU; conditions: 10 mM MgCl2, 50 mM KCl (1x of 2x buffer); 25 mM Tris-HCl pH 8.3 (1x), room temperature, ~48 h
[14] = test system: r10-1C (RNA, aptamer) GGCUACCGCGGCUGGCUUCGGCCUCGCGUGGAUAUGGCACGCGUAGAAGGGCACCGUAAAUGUCCUACUUGCGGUAGUC; conditions: 10 mM MgCl2, 50 mM KCl (1x of 2x buffer); 25 mM Tris-HCl pH 8.3 (1x), room temperature, ~48 h

SMILES: CC1(C)CC(Oc2ccc(-c3ccc(-c4cn[nH]c4)cc3O)nn2)CC(C)(C)N1
- KD [1]: 634 ± 74 nM
- KD [2]: 420 ± 41 nM
- KD [3]: 964 ± 382 nM
- KD [4]: 150 ± 26 nM
- binding [5]: yes
- KD [6]: 2440 ± 1030 nM
- KD [7]: 623 ± 55 nM
- KD [8]: 311 ± 19 nM
- KD [9]: 2270 ± 150 nM
- binding [10]: no
- KD [11]: 1170 ± 170 nM
- KD [12]: 846 ± 127 nM
- KD [13]: 352 ± 21 nM
- KD [14]: 400 ± 43 nM
